Measurements taken from PubChem BioAssay (NCI).
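GI50 is the concentration that inhibits growth by half. At the TGI there is no net growth.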

Key:
Test in all cases: NCI-60 cell line screen, 384-well format
MALME-3M melanoma = test system: MALME-3M melanoma
NCI-H226 lung = test system: NCI-H226 lung
SK-MEL-2 melanoma = test system: SK-MEL-2 melanoma
BT-549 breast = test system: BT-549 breast
A498 renal = test system: A498 renal
NCI-H460 NSCLC = test system: NCI-H460 NSCLC
OVCAR-4 ovarian = test system: OVCAR-4 ovarian
UACC-62 melanoma = test system: UACC-62 melanoma
DU-145 prostate = test system: DU-145 prostate
UACC-257 melanoma = test system: UACC-257 melanoma
COLO 205 colon = test system: COLO 205 colon
TK-10 renal = test system: TK-10 renal
ACHN renal = test system: ACHN renal
EKVX NSCLC = test system: EKVX NSCLC
MDA-MB-231 breast = test system: MDA-MB-231 breast
NCI-H23 lung = test system: NCI-H23 lung
T-47D breast = test system: T-47D breast
SF-268 CNS = test system: SF-268 CNS
SNB-75 CNS = test system: SNB-75 CNS
SNB-19 CNS = test system: SNB-19 CNS
MDA-MB-468 breast = test system: MDA-MB-468 breast
CAKI-1 renal = test system: CAKI-1 renal
IGROV1 ovarian = test system: IGROV1 ovarian
786-0 renal = test system: 786-0 renal
MDA-MB-435 melanoma = test system: MDA-MB-435 melanoma
UO-31 renal = test system: UO-31 renal
SN12C renal = test system: SN12C renal
KM12 colon = test system: KM12 colon
HT29 colon = test system: HT29 colon
HOP-62 NSCLC = test system: HOP-62 NSCLC
SK-MEL-5 melanoma = test system: SK-MEL-5 melanoma
SF-295 CNS = test system: SF-295 CNS
OVCAR-8 ovarian = test system: OVCAR-8 ovarian
NCI-H522 lung = test system: NCI-H522 lung
RXF 393 renal = test system: RXF 393 renal
HS 578T breast = test system: HS 578T breast
SF-539 CNS = test system: SF-539 CNS
SR leukemia = test system: SR leukemia
K-562 leukemia = test system: K-562 leukemia
OVCAR-5 ovarian = test system: OVCAR-5 ovarian
SK-MEL-28 melanoma = test system: SK-MEL-28 melanoma
MOLT-4 leukemia = test system: MOLT-4 leukemia
HOP-92 NSCLC = test system: HOP-92 NSCLC
HL-60(TB) leukemia = test system: HL-60(TB) leukemia
SW-620 colon = test system: SW-620 colon
HCT-15 colon = test system: HCT-15 colon
OVCAR-3 ovarian = test system: OVCAR-3 ovarian
PC-3 prostate = test system: PC-3 prostate
NCI-H322M lung = test system: NCI-H322M lung
U251 glioblastoma = test system: U251 glioblastoma
M14 melanoma = test system: M14 melanoma
HCT-116 colon = test system: HCT-116 colon
SK-OV-3 ovarian = test system: SK-OV-3 ovarian

Nc1nn2cc(F)cnc2c1C(=O)Nc1cncc(F)c1N1CCC(C(=O)N2CCN(C3COC3)CC2)CC1
GI50 (MALME-3M melanoma): 0.0188 µM | TGI (MALME-3M melanoma): 0.0532 µM | GI50 (NCI-H226 lung): 0.327 µM | TGI (NCI-H226 lung): 2.24 µM | GI50 (SK-MEL-2 melanoma): 0.0241 µM | TGI (SK-MEL-2 melanoma): 0.0802 µM | GI50 (BT-549 breast): 0.0245 µM | TGI (BT-549 breast): 0.0844 µM | GI50 (A498 renal): 0.0345 µM | TGI (A498 renal): 0.207 µM | GI50 (NCI-H460 NSCLC): 0.0208 µM | TGI (NCI-H460 NSCLC): 0.156 µM | GI50 (OVCAR-4 ovarian): 0.0625 µM | TGI (OVCAR-4 ovarian): 2.44 µM | GI50 (UACC-62 melanoma): 0.223 µM | TGI (UACC-62 melanoma): 1.57 µM | GI50 (DU-145 prostate): 0.0705 µM | TGI (DU-145 prostate): 0.954 µM | GI50 (UACC-257 melanoma): 0.332 µM | TGI (UACC-257 melanoma): 1.89 µM | GI50 (COLO 205 colon): 0.218 µM | TGI (COLO 205 colon): 2.09 µM | GI50 (TK-10 renal): 0.0299 µM | TGI (TK-10 renal): 0.231 µM | GI50 (ACHN renal): 0.0469 µM | TGI (ACHN renal): 0.251 µM | GI50 (EKVX NSCLC): 0.132 µM | TGI (EKVX NSCLC): 0.615 µM | GI50 (MDA-MB-231 breast): 0.789 µM | TGI (MDA-MB-231 breast): > 100 µM | GI50 (NCI-H23 lung): 0.0169 µM | TGI (NCI-H23 lung): 0.0552 µM | GI50 (T-47D breast): 4.73 µM | TGI (T-47D breast): > 100 µM | GI50 (SF-268 CNS): 0.0776 µM | TGI (SF-268 CNS): 1.74 µM | GI50 (SNB-75 CNS): 0.219 µM | TGI (SNB-75 CNS): 1.99 µM | GI50 (SNB-19 CNS): 0.407 µM | TGI (SNB-19 CNS): 4.35 µM | GI50 (MDA-MB-468 breast): 0.0294 µM | TGI (MDA-MB-468 breast): 0.324 µM | GI50 (CAKI-1 renal): 0.185 µM | TGI (CAKI-1 renal): 1.47 µM | GI50 (IGROV1 ovarian): 0.17 µM | TGI (IGROV1 ovarian): 1.54 µM | GI50 ([…]-0 renal): 0.103 µM | TGI (786-0 renal): 0.323 µM | GI50 (MDA-MB-435 melanoma): 0.0357 µM | TGI (MDA-MB-435 melanoma): 0.308 µM | GI50 (UO-31 renal): 0.194 µM | TGI (UO-31 renal): 0.717 µM | GI50 (SN12C renal): 0.376 µM | TGI (SN12C renal): 2.93 µM | GI50 (KM12 colon): 0.0327 µM | TGI (KM12 colon): 0.727 µM | GI50 (HT29 colon): 0.302 µM | TGI (HT29 colon): > 100 µM | GI50 (HOP-62 NSCLC): 0.0214 µM | TGI (HOP-62 NSCLC): 0.218 µM | GI50 (SK-MEL-5 melanoma): 0.0986 µM | TGI (SK-MEL-5 melanoma): 0.334 µM | GI50 (SF-295 CNS): 0.0315 µM | TGI (SF-295 CNS): 0.171 µM | GI50 (OVCAR-8 ovarian): 0.174 µM | TGI (OVCAR-8 ovarian): 0.558 µM | GI50 (NCI-H522 lung): 0.183 µM | TGI (NCI-H522 lung): 0.735 µM | GI50 (RXF 393 renal): 0.016 µM | TGI (RXF 393 renal): 0.0532 µM | GI50 (HS 578T breast): 0.013 µM | TGI (HS 578T breast): 0.0422 µM | GI50 (SF-539 CNS): 0.033 µM | TGI (SF-539 CNS): 0.149 µM | TGI (SR leukemia): 0.0221 µM | GI50 (K-562 leukemia): 0.0482 µM | TGI (K-562 leukemia): 0.179 µM | GI50 (OVCAR-5 ovarian): 0.543 µM | TGI (OVCAR-5 ovarian): > 100 µM | GI50 (SK-MEL-28 melanoma): 2.04 µM | TGI (SK-MEL-28 melanoma): > 100 µM | TGI (MOLT-4 leukemia): 0.0118 µM | GI50 (HOP-92 NSCLC): 0.0479 µM | TGI (HOP-92 NSCLC): 0.539 µM | GI50 (HL-60(TB) leukemia): 0.0374 µM | TGI (HL-60(TB) leukemia): 0.0838 µM | GI50 (SW-620 colon): 0.227 µM | TGI (SW-620 colon): > 100 µM | GI50 (HCT-15 colon): 0.0347 µM | TGI (HCT-15 colon): 0.208 µM | GI50 (OVCAR-3 ovarian): 0.215 µM | TGI (OVCAR-3 ovarian): 1.42 µM | GI50 (PC-3 prostate): 0.296 µM | TGI (PC-3 prostate): 2.82 µM | GI50 (NCI-H322M lung): 0.0339 µM | TGI (NCI-H322M lung): 0.306 µM | GI50 (U251 glioblastoma): 0.141 µM | TGI (U251 glioblastoma): 1.17 µM | GI50 (M14 melanoma): 0.035 µM | TGI (M14 melanoma): 0.378 µM | GI50 (HCT-116 colon): 0.0929 µM | TGI (HCT-116 colon): 1.75 µM | GI50 (SK-OV-3 ovarian): 0.0573 µM | TGI (SK-OV-3 ovarian): 0.264 µM
